Data as given in ChEMBL document CHEMBL1143203, “Targeting the inverted CCAAT Box-2 of the topoisomerase IIalpha gene: DNA sequence selective recognition by a polyamide-intercalator as a staggered dimer” (Bioorg Med Chem, 2008).
Active and inactive are the calls of the source. The rule behind the calls is not given here.

Experiments:
[1] = Inhibition of NF-Y binding to 5'-[32P]ICB2-containing DNA fragment at 50 uM after 2 hrs by electrophoretic mobility shift assay
[2] = Binding affinity to biotinylated ACGCGT DNA
[3] = Binding affinity to biotinylated AAGCTT DNA
[4] = Binding affinity to biotinylated AAATTT DNA
Nucleic Acid [5] = assay: Binding affinity to topoisomerase 2alpha promoter AAATTT 11 bp DNA by thermal denaturation assay; assay type: nucleic-acid assay
Nucleic Acid [6] = assay: Binding affinity to topoisomerase 2-alpha promoter AAGCTA DNA by thermal denaturation assay; assay type: nucleic-acid assay
Nucleic Acid [7] = assay: Binding affinity to topoisomerase 2alpha promoter ATGCAT DNA by thermal denaturation assay; assay type: nucleic-acid assay
Nucleic Acid [8] = assay: Binding affinity to topoisomerase 2-alpha promoter AAATTT 12 bp DNA by thermal denaturation assay; assay type: nucleic-acid assay
NIH3T3 = assay: Induction of topoisomerase 2-alpha expression in mouse NIH3T3 cells at 10 uM after 24 hrs by Western blotting assay; assay type: functional, cell-based
Nucleic Acid [9] = assay: Binding affinity to topoisomerase 2alpha promoter AAATTT 10 bp DNA by thermal denaturation assay; assay type: nucleic-acid assay

SMILES | Activity [1] | K [2] | K [3] | K [4] | ΔTm (Nucleic Acid [5]) | ΔTm (Nucleic Acid [6]) | ΔTm (Nucleic Acid [7]) | ΔTm (Nucleic Acid [8]) | Activity (NIH3T3) | ΔTm (Nucleic Acid [9])
CN(C)CCCNC(=O)c1cc(NC(=O)c2cc(NC(=O)c3nc(NC=O)cn3C)cn2C)cn1C | inactive | 9.5 10^4/M | 5.5 10^6/M | 4.7 10^5/M | 3.5 °C | 5.1 °C | 11 °C |  |  | 
CN(CCCNC(=O)CCCCCCCN1C(=O)c2cccc3cccc(c23)C1=O)CCCNC(=O)c1cc(NC(=O)c2cc(NC(=O)c3nc(NC=O)cn3C)cn2C)cn1C | Active | 2.8 10^5/M | 5.6 10^6/M | 1.5 10^5/M |  | 8.4 °C |  | 3.8 °C | Active | 
CN(CCCN)CCCNC(=O)c1cc(NC(=O)c2cc(NC(=O)c3nc(NC=O)cn3C)cn2C)cn1C |  |  |  |  |  | > 22 °C |  |  |  | 10 °C
